Residues, ends and D or L forms follow the SMILES beside them.
Columns and labels:
[1] = tested on: Human immunodeficiency virus 1; experiment: Binding affinity to HIV1 His-tagged N-terminal heptad repeat of envelope glycoprotein gp41 assessed as recovery of N54-drug complex after 2 hrs by LC-MS analysis; design: concentration or dose not given beside the values
[2] = tested on: Envelope glycoprotein gp160 (Human immunodeficiency virus 1), Q72502 [V38A]; experiment: Thermal stability of HIV1 envelope glycoprotein gp41 His-tagged N-terminal heptad repeat N54 V38A mutant-drug complex assessed as thermal unfolding transition state by measuring molar ellipticity at 4 to 90 degC by circular dichroic spectra analysis
[3] = tested on: Human immunodeficiency virus 1; experiment: Thermal stability of HIV1 envelope glycoprotein gp41 His-tagged N-terminal heptad repeat N54-drug complex assessed as thermal unfolding transition state by measuring molar ellipticity at 4 to 90 degC by circular dichroic spectra analysis
[4] = tested on: Envelope glycoprotein gp160 (Human immunodeficiency virus 1), Q72502 [V38A]; experiment: Binding affinity to HIV1 His-tagged N-terminal heptad repeat of envelope glycoprotein gp41 assessed as recovery of N54 V38A mutant-drug complex after 2 hrs by LC-MS analysis; design: concentration or dose not given beside the values
[5] = tested on: Human immunodeficiency virus 1; experiment: Thermal stability of HIV1 envelope glycoprotein gp41 His-tagged N-terminal heptad repeat N54 N43D mutant-drug complex assessed as thermal unfolding transition state by measuring molar ellipticity at 4 to 90 degC by circular dichroic spectra analysis
[6] = tested on: Human immunodeficiency virus 1; experiment: Antiviral activity against HIV1 NL4-3 harboring gp41 D36G mutant infected in human HeLa cells expressing CD4-LTR-beta-gal assessed as inhibition of viral replication after 48 hrs by MAGI assay; assay type: functional, organism-based
[7] = tested on: Human immunodeficiency virus 1; experiment: Binding affinity to HIV1 His-tagged N-terminal heptad repeat of envelope glycoprotein gp41 assessed as recovery of N54 N43D mutant-drug complex after 2 hrs by LC-MS analysis; design: concentration or dose not given beside the values
[8] = tested on: Human immunodeficiency virus 1; experiment: Binding affinity to HIV1 His-tagged N-terminal heptad repeat of envelope glycoprotein gp41 assessed as recovery of N36-drug complex at 10 uM after 2 hrs by LC-MS analysis
[9] = tested on: Human immunodeficiency virus 1; experiment: Binding affinity to HIV1 His-tagged N-terminal heptad repeat of envelope glycoprotein gp41 assessed as recovery of N36-drug complex at 0.6 uM after 2 hrs by LC-MS analysis
[10] = tested on: Human immunodeficiency virus 1; experiment: Binding affinity to HIV1 His-tagged N-terminal heptad repeat of envelope glycoprotein gp41 assessed as recovery of N36-drug complex at 1 uM after 2 hrs by LC-MS analysis
[11] = tested on: Human immunodeficiency virus 1; experiment: Binding affinity to HIV1 His-tagged N-terminal heptad repeat of envelope glycoprotein gp41 assessed as recovery of N36-drug complex at 6 uM after 2 hrs by LC-MS analysis
[12] = tested on: Human immunodeficiency virus 1; experiment: Thermal stability of HIV1 envelope glycoprotein gp41 His-tagged N-terminal heptad repeat N36-drug complex assessed as thermal unfolding transition state by measuring molar ellipticity at 4 to 90 degC by circular dichroic spectra analysis

SMILES | Activity [1] [%] | Tm [2] [°C] | Tm [3] [°C] | Activity [4] [%] | Tm [5] [°C] | EC50 [6] [nM] | Activity [7] [%] | Activity [8] [%] | Activity [9] [%] | Activity [10] [%] | Activity [11] [%] | Tm [12] [°C]
CC[C@H](C)[C@H](NC(=O)[C@H](CC(C)C)NC(=O)[C@H](CCC(=O)O)NC(=O)[C@H](CCC(=O)O)NC(=O)[C@@H](NC(=O)[C@H](CC(C)C)NC(=O)[C@H](CO)NC(=O)[C@@H](NC(=O)[C@H](Cc1ccc(O)cc1)NC(C)=O)[C@@H](C)O)[C@@H](C)CC)C(=O)N[C@@H](CCCCN)C(=O)N[C@@H](CCCCN)C(=O)N[C@@H](CO)C(=O)N[C@@H](CCC(=O)O)C(=O)N[C@@H](CCC(=O)O)C(=O)N[C@@H](CCC(N)=O)C(=O)N[C@@H](CCC(N)=O)C(=O)N[C@@H](CCCCN)C(=O)N[C@@H](CCCCN)C(=O)N[C@@H](CC(N)=O)C(=O)N[C@@H](CCC(=O)O)C(=O)N[C@@H](CCC(=O)O)C(=O)N[C@@H](CCC(=O)O)C(=O)N[C@@H](CC(C)C)C(=O)N[C@@H](CCCCN)C(=O)N[C@@H](CCCCN)C(=O)N[C@@H](CC(C)C)C(=O)N[C@@H](CCC(=O)O)C(=O)N[C@@H](CCC(=O)O)C(=O)N[C@@H](Cc1c[nH]c2ccccc12)C(=O)N[C@@H](C)C(=O)N[C@@H](CCCCN)C(=O)N[C@@H](CCCCN)C(=O)N[C@@H](Cc1c[nH]c2ccccc12)C(=O)N[C@@H](CC(N)=O)C(=O)N[C@@H](Cc1c[nH]c2ccccc12)C(=O)N[C@@H](Cc1ccccc1)C(N)=O (Ac-YTSLIEELIKKSEEQQKKNEEELKKLEEWAKKWNWF-NH2) | 8.2 | 60 | 78.8 | 9.3 | 65.3 | 1.1 | 7.4 | – | – | – | – | –
CC[C@H](C)[C@H](NC(=O)[C@H](CC(C)C)NC(=O)[C@H](CCC(=O)O)NC(=O)[C@H](CCC(=O)O)NC(=O)[C@@H](NC(=O)[C@H](CC(C)C)NC(=O)[C@H](CO)NC(=O)[C@@H](NC(=O)[C@H](Cc1ccc(O)cc1)NC(C)=O)[C@@H](C)O)[C@@H](C)CC)C(=O)N[C@@H](CCCCN)C(=O)N[C@@H](CCCCN)C(=O)N[C@@H](CC(C)C)C(=O)N[C@@H](CCC(=O)O)C(=O)N[C@@H](CCC(=O)O)C(=O)N[C@@H](CCC(N)=O)C(=O)N[C@@H](CCC(N)=O)C(=O)N[C@@H](CCCCN)C(=O)N[C@@H](CCCCN)C(=O)N[C@@H](CC(N)=O)C(=O)N[C@@H](CCC(=O)O)C(=O)N[C@@H](CCC(=O)O)C(=O)N[C@@H](CCC(=O)O)C(=O)N[C@@H](CC(C)C)C(=O)N[C@@H](CCCCN)C(=O)N[C@@H](CCCCN)C(=O)N[C@@H](CC(C)C)C(=O)N[C@@H](CCC(=O)O)C(=O)N[C@@H](CCC(=O)O)C(=O)N[C@@H](Cc1c[nH]c2ccccc12)C(=O)N[C@@H](C)C(=O)N[C@@H](CCCCN)C(=O)N[C@@H](CCCCN)C(=O)N[C@@H](Cc1c[nH]c2ccccc12)C(=O)N[C@@H](CC(N)=O)C(=O)N[C@@H](Cc1c[nH]c2ccccc12)C(=O)N[C@@H](Cc1ccccc1)C(N)=O (Ac-YTSLIEELIKKLEEQQKKNEEELKKLEEWAKKWNWF-NH2) | 10.4 | 57.5 | 77.6 | 10.1 | 74 | 0.4 | 10.8 | – | – | – | – | –
CC[C@H](C)[C@H](NC(=O)[C@H](CC(C)C)NC(=O)[C@H](CO)NC(=O)[C@@H](NC(=O)[C@H](Cc1ccc(O)cc1)NC(C)=O)[C@@H](C)O)C(=O)N[C@@H](CCC(=O)O)C(=O)N[C@@H](CCC(=O)O)C(=O)N[C@@H](CC(C)C)C(=O)N[C@H](C(=O)N[C@@H](CCCCN)C(=O)N[C@@H](CCCCN)C(=O)N1CCC[C@H]1C(=O)N[C@@H](CCC(=O)O)C(=O)N[C@@H](CCC(=O)O)C(=O)N[C@@H](CCC(N)=O)C(=O)N[C@@H](CCC(N)=O)C(=O)N[C@@H](CCCCN)C(=O)N[C@@H](CCCCN)C(=O)N[C@@H](CC(N)=O)C(=O)N[C@@H](CCC(=O)O)C(=O)N[C@@H](CCC(=O)O)C(=O)N[C@@H](CCC(=O)O)C(=O)N[C@@H](CC(C)C)C(=O)N[C@@H](CCCCN)C(=O)N[C@@H](CCCCN)C(=O)N[C@@H](CC(C)C)C(=O)N[C@@H](CCC(=O)O)C(=O)N[C@@H](CCC(=O)O)C(=O)N[C@@H](Cc1c[nH]c2ccccc12)C(=O)N[C@@H](C)C(=O)N[C@@H](CCCCN)C(=O)N[C@@H](CCCCN)C(=O)N[C@@H](Cc1c[nH]c2ccccc12)C(=O)N[C@@H](CC(N)=O)C(=O)N[C@@H](Cc1c[nH]c2ccccc12)C(=O)N[C@@H](Cc1ccccc1)C(N)=O)[C@@H](C)CC (Ac-YTSLIEELIKKPEEQQKKNEEELKKLEEWAKKWNWF-NH2) | 0.2 | 49.7 | 55.5 | 0 | 55 | 44 | 0.3 | – | – | – | – | –
CC[C@H](C)[C@H](NC(=O)[C@H](CC(C)C)NC(=O)[C@H](CCC(=O)O)NC(=O)[C@H](CCC(=O)O)NC(=O)[C@@H](NC(=O)[C@H](CCCCN)NC(=O)[C@H](CCCCN)NC(=O)[C@@H](NC(=O)[C@H](Cc1ccc(O)cc1)NC(=O)[C@H](CCC(=O)O)NC(=O)[C@H](CCC(=O)O)NC(=O)[C@@H](NC(=O)[C@H](CCCCN)NC(=O)[C@H](CCCCN)NC(=O)[C@H](CC(=O)O)NC(=O)[C@H](Cc1c[nH]c2ccccc12)NC(=O)[C@H](CCC(=O)O)NC(=O)[C@H](CCC(=O)O)NC(=O)[C@H](Cc1c[nH]c2ccccc12)NC(C)=O)[C@@H](C)CC)[C@@H](C)O)[C@@H](C)CC)C(=O)N[C@@H](CCCCN)C(=O)N[C@@H](CCCCN)C(=O)N[C@@H](CCCCN)C(=O)N[C@@H](CCC(=O)O)C(=O)N[C@@H](CCC(=O)O)C(=O)N[C@@H](CCC(N)=O)C(=O)N[C@@H](CCC(N)=O)C(=O)N[C@@H](CCCCN)C(=O)N[C@@H](CCCCN)C(=O)N[C@@H](CC(N)=O)C(=O)N[C@@H](CCC(=O)O)C(=O)N[C@@H](CCC(=O)O)C(=O)N[C@@H](CCC(=O)O)C(=O)N[C@@H](CC(C)C)C(=O)N[C@@H](CCCCN)C(=O)N[C@@H](CCCCN)C(N)=O (Ac-WEEWDKKIEEYTKKIEELIKKKEEQQKKNEEELKK-NH2) | – | – | – | – | – | 8.2 | – | 0.2 | 3.6 | 0 | 0.1 | 53.5
CC[C@H](C)[C@H](NC(=O)[C@H](CC(C)C)NC(=O)[C@H](CCC(=O)O)NC(=O)[C@H](CCC(=O)O)NC(=O)[C@@H](NC(=O)[C@H](CCCCN)NC(=O)[C@H](CCCCN)NC(=O)[C@@H](NC(=O)[C@H](Cc1ccc(O)cc1)NC(=O)[C@H](CCC(=O)O)NC(=O)[C@H](CCC(=O)O)NC(=O)[C@@H](NC(=O)[C@H](CCCCN)NC(=O)[C@H](CCCCN)NC(=O)[C@H](CC(=O)O)NC(=O)[C@H](Cc1c[nH]c2ccccc12)NC(=O)[C@H](CCC(=O)O)NC(=O)[C@H](CCC(=O)O)NC(=O)[C@H](Cc1c[nH]c2ccccc12)NC(C)=O)[C@@H](C)CC)[C@@H](C)O)[C@@H](C)CC)C(=O)N[C@@H](CCCCN)C(=O)N[C@@H](CCCCN)C(=O)N[C@@H](CCC(N)=O)C(=O)N[C@@H](CCC(=O)O)C(=O)N[C@@H](CCC(=O)O)C(=O)N[C@@H](CCC(N)=O)C(=O)N[C@@H](CCC(N)=O)C(=O)N[C@@H](CCCCN)C(=O)N[C@@H](CCCCN)C(=O)N[C@@H](CC(N)=O)C(=O)N[C@@H](CCC(=O)O)C(=O)N[C@@H](CCC(=O)O)C(=O)N[C@@H](CCC(=O)O)C(=O)N[C@@H](CC(C)C)C(=O)N[C@@H](CCCCN)C(=O)N[C@@H](CCCCN)C(N)=O (Ac-WEEWDKKIEEYTKKIEELIKKQEEQQKKNEEELKK-NH2) | – | – | – | – | – | 2.4 | – | 0.9 | 6.1 | 2.1 | 0.5 | 65.9

From ChEMBL document CHEMBL3390848, “Affinity selection and sequence-activity relationships of HIV-1 membrane fusion inhibitors directed at the drug-resistant variants” (Medchemcomm, 2010)
